Source: the CombiSolv-Exp solvation set (Vermeire and Green 2021)
Blank lines part the entries; values can stand above or below the compound they belong to.

Experiment: solvent given as SMILES
[1] = in CCCCCCCCC=CCCCCCCCC(=O)OCC(COC(=O)CCCCCCCC=CCCCCCCCC)OC(=O)CCCCCCCC=CCCCCCCCC

solvation free energy, 298 K (in CCCCCCCC(=O)OCC(COC(=O)CCCCCCC)OC(=O)CCCCCCC): -0.46 kcal/mol
solvation free energy, 298 K (in CCCCCCCCC): 0.06 kcal/mol
solvation free energy, 298 K (in CCCCCCCCO): -0.21 kcal/mol
solvation free energy, 298 K (in CN1CCCC1=O): -1.35 kcal/mol
solvation free energy, 298 K (in CN(C)C=O): -0.86 kcal/mol
solvation free energy, 298 K (in O): 0.7 kcal/mol
Compound: FC(F)F

solvation free energy, 298 K (in O): 1.13 kcal/mol
Compound: CC(C)C1CCC2(C)C3CC4C(C13)C42C (stereo unspecified)

solvation free energy, 298 K (in O): -3.82 kcal/mol
Compound: O=COc1ccccc1

Compound: CCCCCN(CCCCC)N=O
solvation free energy, 298 K (in CC(C)CC(C)(C)C): -9.29 kcal/mol

Compound: CCCCCCCCCCCCCCCCCCCCCCCCCCCC
solvation free energy, 298 K (in CC(=O)N(C)C): -18.9 kcal/mol
solvation free energy, 298 K (in CC(C)(C)O): -16.9 kcal/mol
solvation free energy, 298 K (in CCC(C)=O): -17.1 kcal/mol
solvation free energy, 298 K (in CCCCCO): -17 kcal/mol
solvation free energy, 298 K (in CCCCO): -16.7 kcal/mol
solvation free energy, 298 K (in CCCCOC(C)=O): -17.9 kcal/mol
solvation free energy, 298 K (in CCCO): -16.4 kcal/mol
solvation free energy, 298 K (in CN(C)C=O): -19 kcal/mol
solvation free energy, 298 K (in Cc1ccc(C)cc1): -19.3 kcal/mol
solvation free energy, 298 K (in Cc1cccc(C)c1): -19.2 kcal/mol
solvation free energy, 298 K (in ClCCl): -18.6 kcal/mol
solvation free energy, 298 K (in O): 5.92 kcal/mol

Compound: Clc1cc(-c2ccccc2)c(Cl)c(Cl)c1Cl
solvation free energy, 298 K (in CCCCCCCCO): -11.7 kcal/mol
solvation free energy, 298 K (in O): -3.29 kcal/mol

Compound: CCCCOCC
solvation free energy, 298 K (in CC(C)CCl): -4.73 kcal/mol
solvation free energy, 298 K (in CCC(C)Cl): -4.73 kcal/mol
solvation free energy, 298 K (in CCCCCl): -4.77 kcal/mol
solvation free energy, 298 K (in ClC(Cl)(Cl)Cl): -4.91 kcal/mol

Compound: O=C(O)c1ccccc1O
solvation free energy, 298 K (in C1CCOC1): -10.8 kcal/mol
solvation free energy, 298 K (in C1COCCO1): -10.3 kcal/mol
solvation free energy, 298 K (in CC(C)(C)O): -10.4 kcal/mol
solvation free energy, 298 K (in CC(C)=O): -10.5 kcal/mol
solvation free energy, 298 K (in CC(C)CCO): -10.1 kcal/mol
solvation free energy, 298 K (in CC(C)CO): -10.2 kcal/mol
solvation free energy, 298 K (in CC(C)O): -10.4 kcal/mol
solvation free energy, 298 K (in CCC(C)=O): -10.4 kcal/mol
solvation free energy, 298 K (in CCC(C)O): -10.3 kcal/mol
solvation free energy, 298 K (in CCCC(C)O): -10.3 kcal/mol
solvation free energy, 298 K (in CCCCCCCCO): -10.2 kcal/mol
solvation free energy, 298 K (in CCCCCCO): -10.2 kcal/mol
solvation free energy, 298 K (in CCCCCO): -10.2 kcal/mol
solvation free energy, 298 K (in CCCCO): -10.3 kcal/mol
solvation free energy, 298 K (in CCCCOC(C)=O): -10 kcal/mol
solvation free energy, 298 K (in CCCCOCCCC): -9.58 kcal/mol
solvation free energy, 298 K (in CCCO): -10.3 kcal/mol
solvation free energy, 298 K (in CCO): -10.4 kcal/mol
solvation free energy, 298 K (in CCOC(C)=O): -10.1 kcal/mol
solvation free energy, 298 K (in CCOCC): -10.2 kcal/mol
solvation free energy, 298 K (in CN(C)C=O): -10.9 kcal/mol
solvation free energy, 298 K (in CO): -10.5 kcal/mol
solvation free energy, 298 K (in COC(C)(C)C): -10.2 kcal/mol
solvation free energy, 298 K (in COC(C)=O): -10.2 kcal/mol
solvation free energy, 298 K (in Clc1ccccc1): -8.36 kcal/mol
solvation free energy, 298 K (in NC=O): -9.97 kcal/mol
solvation free energy, 298 K (in O): -7.35 kcal/mol
solvation free energy, 298 K (in O=C1CCCCC1): -10.4 kcal/mol

Compound: Oc1c(Cl)cc(Cl)cc1Cl
solvation free energy, 298 K [1]: -8.28 kcal/mol
solvation free energy, 298 K (in O): -4.95 kcal/mol

Compound: Nc1ccc([N+](=O)[O-])cc1
solvation free energy, 298 K (in CC(C)CC(C)(C)C): -8.11 kcal/mol
solvation free energy, 298 K (in CC(C)CO): -11.6 kcal/mol
solvation free energy, 298 K (in CCC(C)O): -11.9 kcal/mol
solvation free energy, 298 K (in CCCCOC(C)=O): -12.7 kcal/mol
solvation free energy, 298 K (in CCCCOCCCC): -11.1 kcal/mol
solvation free energy, 298 K (in COC(C)=O): -13.2 kcal/mol

solvation free energy, 298 K (in CCCCCC): -4.93 kcal/mol
solvation free energy, 298 K (in CCCCCCC): -4.91 kcal/mol
solvation free energy, 298 K (in CCCCCCCC): -4.85 kcal/mol
solvation free energy, 298 K (in CCCCCCCCCC): -4.75 kcal/mol
solvation free energy, 298 K (in CO): -5.33 kcal/mol
solvation free energy, 298 K (in O): -2.56 kcal/mol
Compound: CCCCC(=O)OC

solvation free energy, 298 K (in O): -2.04 kcal/mol
Compound: CCCCCCCC(=O)OC

solvation free energy, 298 K (in C=CCCCCCCC=C): -16.6 kcal/mol
solvation free energy, 298 K (in C=CCCCCCCCCCCCCCC): -15.8 kcal/mol
solvation free energy, 298 K (in O): -24.3 kcal/mol
Compound: Nc1ncnc2c1ncn2C1CC(O)C(CO)O1 (stereo unspecified)

solvation free energy, 298 K (in O): 0.05 kcal/mol
Compound: C=C1CC=C(C(C)C)CC1

solvation free energy, 298 K (in CCCCCCCC): -4.6 kcal/mol
solvation free energy, 298 K (in CCCCCCCCCC): -4.55 kcal/mol
Compound: CC(C)C(C)(C)O

Compound: CCC(=O)Nc1ccc(Cl)c(Cl)c1
solvation free energy, 298 K (in O): -7.78 kcal/mol

Compound: CCCCCCCCCCCCCCO
solvation free energy, 298 K (in CC(C)O): -12.3 kcal/mol
solvation free energy, 298 K (in CCC(C)=O): -12.6 kcal/mol
solvation free energy, 298 K [1]: -9.9 kcal/mol
solvation free energy, 298 K (in CCCCCCCCCCO): -12.1 kcal/mol
solvation free energy, 298 K (in CCCCCCO): -12.2 kcal/mol
solvation free energy, 298 K (in O): -3.08 kcal/mol

solvation free energy, 298 K (in C=CCCCCCCCCCCCCCC): -10.5 kcal/mol
solvation free energy, 298 K (in O): -16.5 kcal/mol
Compound: O=C(O)Cc1ccc(C(=O)O)cc1

solvation free energy, 298 K (in O): -3.07 kcal/mol
Compound: CCCC(=O)CC

Compound: Clc1ccc(Cl)c(-c2cc(Cl)c(Cl)cc2Cl)c1
solvation free energy, 298 K (in CCCCCCCCO): -12 kcal/mol
solvation free energy, 298 K (in O): -2.82 kcal/mol

Compound: O=C(O)c1ccccc1Cl
solvation free energy, 298 K (in CC(C)=O): -10.4 kcal/mol
solvation free energy, 298 K (in CN(C)C=O): -11.1 kcal/mol
solvation free energy, 298 K (in O): -7.53 kcal/mol

solvation free energy, 298 K (in C=CCCCCCCC=C): -2.89 kcal/mol
solvation free energy, 298 K (in C=CCCCCCCCCCCCCCC): -2.47 kcal/mol
Compound: O=CO

Compound: Clc1ccc(Cl)cc1
solvation free energy, 298 K (in CCCCCC): -6.06 kcal/mol
solvation free energy, 298 K (in CCCCCCC): -5.81 kcal/mol
solvation free energy, 298 K [1]: -6.7 kcal/mol
solvation free energy, 298 K (in O): -1.01 kcal/mol

solvation free energy, 298 K (in O): -9.86 kcal/mol
Compound: COc1c(Cl)ccc(Cl)c1C(=O)O

solvation free energy, 298 K (in O): -15.8 kcal/mol
Compound: O=c1cc(Cl)[nH]c(=O)[nH]1

solvation free energy, 298 K (in CCCCCCCCO): -8.8 kcal/mol
Compound: c1ccc(CCc2ccccc2)cc1

solvation free energy, 298 K (in O): -4.38 kcal/mol
Compound: Clc1ccc(-c2c(Cl)c(Cl)cc(Cl)c2Cl)cc1Cl
